Laboratory results published in patent publication US20160058712A1, “3-HYDROXYPTEROSTILBENE AND THERAPEUTIC APPLICATIONS THEREOF” (priority 2014, published 2016).

Tests used:
[1] = tested on: PC-3 (Human prostate cancer cell line); assay: MTT cell viability assay, PC-3; format: cell-based; conditions: Homo sapiens; PC-3, MTT
Description: (§1) Cell viability was assayed by 3(4,5-dimethylthiazol-2-yl)-2,5-diphenyltetrazolium bromide (MTT). Briefly. COLO 205, HCT116 and HT29 cells were plated at a density of 2×10^2 cells/mL into 96 well plates. After overnight growth, cells were treated with a series of concentrations of pterostilbene or 3-hydroxypterostilbene for 24 h. The final concentrations of DMSO in the culture medium were <0.05%. At the end of treatment, 0.2% MTT was added and cells were incubated for a further 4 h. Cell viability was determined by scanning with an ELISA reader with a 570 nm filter.
The MTT reaction explained in Para 0040 was also used to assess the cell viability of human prostate cancer cells (PC-3) in the presence of pterostilbene and 3-hydroxypterostilbene. The results (FIG. 1) are represented in Table II.

COLO 205 cells [2] = assay: Mitochondrial membrane potential by DiOC6 flow cytometry; format: cell-based, human; conditions: COLO 205, 50 μM, 15 min; shifted from 224
Description: (§2) For mitochondrial membrane potential and ROS production, COLO 205 cells were treated as described under Example III for 15 min, and then DiOC6 [3,3′-dihexyloxacarbocyanine iodide] (40 nM) or DCFHDA [2′,7′-dichlorodihydrofluorescein diacetate] (20 μM) was added to the medium for a further 30 min at 37° C. After washing with PBS, the fluorescence intensity was determined by FAC Scan cytometry. The DiOC6 fluorescence intensity shifted to the left from 224 to 117 and 75 in pterostilbene and 3-HPT induced apoptotic COLO 205 cells, respectively. […] The role of ROS in the induction of apoptosis is well recognized. […] The imbalance of ROS concentrations could play an important role as an early mediator in 3-HPT induced apoptosis.

[3] = tested on: COLO 205 xenograft tumors; assay: COLO 205 xenograft model; format: in vivo; conditions: 10 mg/kg/d i.p., 15 days, nude mice
Description: Male Balb/c nude mice at 3-4 weeks old (weighing 16-18 g) were obtained from the BioLASCO Experimental Animal Center (BioLASCO, Taipei, Taiwan). All animals were maintained in pathogen free sterile isolators and in a controlled atmosphere (25±1° C. at 50% relative humidity) and with a 12 h light-12 h dark cycle according to institutional guidelines. Animals were fed with standard AIN76 diet and all food, water, caging, and bedding were sterilized prior to use. Animals had free access to food and water at all times. Food cups were replenished with fresh diet every day. All animal experimental protocol used in this study was approved by Institutional Animal Care and Use Committee of the National Kaohsiung Marine University (IACUC, NKMU, #099AAA902, Validity dates: Jan. 1, 2009 Jul. 31, 2012). After 1 week of acclimation, colon cancer COLO 205 cells (5×10^6) in 0.2 mL PBS were injected subcutaneously between the scapulae of each nude mouse. After transplantation, tumor size was measured using calipers, and the tumor volume was estimated according to the following formula: tumor volume […]=L×W2/2, where L is the length and W is the width. Once tumors reached a mean size of […], mice were randomly divided into three groups (6 animals/group). Mice were i.p. injection with pterostilbene or 3-hydroxypterostilbene (10 mg/kg/d, respectively) for 15 days, while control animals were received injection of corn oil. The diet intake and body weight of each animal was monitored every day. The tumor volume was assessed and recorded every 5 days using caliper measurements. After 15 days, the mice were sacrificed by […] and the liver, kidneys, spleen and solid tumors were excised immediately and weighed. Average tumor volume and tumor weight of each group were represent the mean±standard deviation (SD). Average tumor volumes were recorded during the treatment and average tumor weights were measured at the end of experiment. Six samples were analyzed in each group, and values represent the mean±SD. *P<0.05 and **P<0.01, compared with control group. #P<0.05, compared with pterostilbene treated group. The tumor tissues were cut into several portion for western blot analysis or stored at −80° C. […] Furthermore, in mice receiving these treatment regimens, no gross signs of toxicity were observed during visible inspections of general appearance and microscopic examinations of individual organs. • 2.

COLO 205 cells [4] = assay: ROS production by DCFHDA flow cytometry; format: cell-based, human; conditions: COLO 205, 50 μM, 15 min; from 114
Description: as §2

COLO 205 cells [5] = assay: MTT cell viability assay, COLO 205; format: cell-based; conditions: Homo sapiens, COLO205, MTT, 24 h
Description: (§3) The human colon cancer cell lines COLO 205, HCT116 and HT29 were purchased from the American Type Culture Collection (Rockville, Md.). Cell lines were grown in RPMI1640 supplemented with 10% heat inactivated fetal bovine serum (GIBCO BRL, Grand Island, N.Y.), 100 units/mL of penicillin, 100 μg/mL of streptomycin), 2 mM L-glutamine (GIBCO BRL, Grand Island, N.Y.), and were kept at 37° C. in a humidified 5% CO2 incubator. Pterostilbene and 3-HPT were dissolved in dimethyl sulfoxide (DMSO, as final concentration of 0.05%). Cells were treated with 0.05% DMSO as vehicle control.
as §1

HCT-116 cells = assay: MTT cell viability assay, HCT116; format: cell-based; conditions: Homo sapiens; HCT-116, MTT, 24 h
Description: as §3, §1

HT-29 cells = assay: MTT cell viability assay, HT29; format: cell-based; conditions: Homo sapiens; HT-29, MTT, 24 h
Description: as §3, §1

COLO 205 cells [6] = assay: Flow cytometry analysis of subG1 cell population (PI staining); format: cell-based, human; conditions: 24 h
Description: For subG1 cell population analysis, COLO 205 cells (2×10^5 cells/mL) were cultured in 12 well and treatment with various concentrations of pterostilbene or 3-hydroxypterostilbene for 24 h. The cells were then harvested, washed with PBS, re-suspended in 200 μL of PBS, and fixed in 800 μL of iced 100% ethanol at […]. After being left to stand overnight, the cell pellets were collected by centrifugation, re-suspended in 1 mL of hypotonic buffer (0.5% Triton X100 in PBS and 0.5 μg/mL RNase) with PI (50 μg/mL) and incubated at 37° C. in the dark for 30 min. Fluorescence emitted from the PIDNA complex was quantitated after excitation of the fluorescent dye by FACScan cytometry (Becton Dickinson, San Jose, Calif.). […] The results indicated a higher apoptotic potential of 3-hydroxypterostilbene for COLO 205 cells.

## COc1cc(/C=C/c2ccc(O)cc2)cc(OC)c1 [Pterostilbene, pterostilbene]
[1]
  IC50: > 20 µM
COLO 205 cells [2]
  DiOC6 fluorescence intensity (mitochondrial membrane potential): 117
[3]
  side effects or toxicity (body and organ weights, gross signs): no noticeable side effects or toxicity
COLO 205 cells [4]
  mean DCFHDA fluorescence intensity (ROS): 141
COLO 205 cells [5]
  IC50: 33.4 ± 0.2 µM
HCT-116 cells
  IC50: 47.1 ± 0.6 µM
HT-29 cells
  IC50: 80.6 ± 3.3 µM
COLO 205 cells [6]; 5 μM
  percentage of apoptotic COLO 205 cells (subG1): 6.2%
COLO 205 cells [6]; 10 μM
  percentage of apoptotic COLO 205 cells (subG1): 8.4%
COLO 205 cells [6]; 25 μM
  percentage of apoptotic COLO 205 cells (subG1): 10.2%
COLO 205 cells [6]; 50 μM
  percentage of apoptotic COLO 205 cells (subG1): 14.8%
